Where two headings read alike, the source gives them in different places.
How the values were obtained:
[1] = system: SRBC specific immunoglobulin; assay: Humoral response: haemagglutination antibody titre against SRBC in normal and immunocompromised rats; format: in vivo; details: Wistar rats, IMS-6 200 mg/Kg orally 14 days, SRBC ip day 10, Cyclophosphamide 400 mg/Kg ip day 12, serum day 14; control 3.278 ± 0.181
[2] = J. Chem. Soc., Pakistan, 1982; cited from earlier work
[3] = Indian J. Chem, 1989; cited from earlier work
[4] = molecular target: snake venom Phosphodiesterase type I (Crotalus adamanteus, UniProt J3SEZ3); details: cited from earlier work
[5] = system: ACD sensitized L929 cells; assay: Assay for immunostimulatory effects: proinflammatory cytokine induced cell death after transfer of RAW 264.7 supernatant; format: cell-based, mouse; details: Table 4, extract 200 μg/ml, LPS 1 μg/ml, control 0
Method: The extracts […] to […] and SR-1 to SR-11 were subjected to biological screening in Mouse macrophage (RAW 264.7) cell and fibroblast (L929) cells for in vitro immunomodulatory activity. Following the treatment with sub toxic levels of the extract the percent death in the ACD sensitised cells was taken as end point.
The stock solution of the plant extract was prepared in specified solvent at a concentration of 50 mg/ml. The working concentration of 10 mg/ml solution was prepared in incomplete Dulbecco's Modified Eagle's Medium (DMEM) and filter sterilized for further use in the assays.
Mouse macrophage (RAW 264.7) cells and fibroblast (L929) cells were used in the in vitro assays. These were maintained in DMEM supplemented with 10% fetal calf serum (FCS) at 37° C. in a humidified atmosphere containing 5% CO2/95% air. The cells were sub cultured upon confluence.
Mouse macrophage (RAW 264.7) cells were plated at a cell density of 1×10^5 cells/well in a 96 well micro titer plate. After 24 h of incubation they were treated with filtered extract (200 μg/ml), Lipopolysaccharide (1 μg/ml) or media alone and incubated for a further period of 18-24 h. The supernatants as such or diluted ( 1/10th or 1/20th) were transferred to pre-incubated (24 h) L929 cells ([…]). […]

RAW-264.7 Cells = assay: Nitric oxide (NO) estimation, nitrite released from mouse macrophage cells; format: cell-based; details: Table 5, 48 h, LPS 1 μg/ml, control 800 ± 50
Method: Macrophages are part of immune system (innate immunity) which phagocytose the intruder organism and kill them by release of toxic Nitric Oxide (NO). In this experiment, the ability of the plant extract to stimulate the macrophages for NO production was measured as nitrite released from mouse macrophage cells. Mouse macrophage cells were plated in 96-well culture plates (1×10^5 cells/well) and incubated for 24 h at 37° C. in a humidified atmosphere containing 5% CO2/95% air. The spent media from each well was aspirated and replenished with fresh media and further incubated for 48 h with desired concentration of extract in presence or in absence of Lipopolysaccharide (LPS 1 μg/ml). NO production in the supernatant was measured by micro plate assay. Cell supernatant was mixed with an equal volume of the Griess reagent (1% sulfanilaminde and 0.1% N-[napthyl]ethylenediamine dihydrochloride in 2.5% H3PO4) at room temperature for 10 min. The absorbance at 540 nm was determined in a microtiter plate reader (Anthos HT II). NO estimation was carried out using standard curve plotted against known quantity of […]. Results presented are in μM concentration obtained from mean OD of triplicate wells of each group.

[6] = system: TNF-α production in RAW-264.7 Cells; assay: Estimation of TNF-α production by ELISA in macrophage supernatant; format: cell-based, mouse; details: Table 6; RAW 264.7 supernatant; control 1662.00 ± 3.50
Method: (§1) This experiment was carried out to know whether the plant extract has stimulatory effects on the production of proinflammatory cytokines. Mouse macrophage cells, RAW 264.7 were cultured for 48 hours in the presence or in the absence of filtered plant extract. LPS was used as stimulant for proinflammatory cytokines TNF-∝ and IL-6. Supernatant of these samples were harvested immediately for estimations of TNF-∝ and IL-6 by an ELISA as per the manufacturer's protocol and recorded the results as concentrations in pg/ml.

[7] = system: IL-6 production in RAW-264.7 Cells; assay: Estimation of IL-6 production by ELISA in macrophage supernatant; format: cell-based, mouse; details: Table 7; RAW 264.7 supernatant; control 542 ± 4
Method: as §1

Chain of snake venom Phosphodiesterase type I (J3SEZ3 24-851 limits assumed): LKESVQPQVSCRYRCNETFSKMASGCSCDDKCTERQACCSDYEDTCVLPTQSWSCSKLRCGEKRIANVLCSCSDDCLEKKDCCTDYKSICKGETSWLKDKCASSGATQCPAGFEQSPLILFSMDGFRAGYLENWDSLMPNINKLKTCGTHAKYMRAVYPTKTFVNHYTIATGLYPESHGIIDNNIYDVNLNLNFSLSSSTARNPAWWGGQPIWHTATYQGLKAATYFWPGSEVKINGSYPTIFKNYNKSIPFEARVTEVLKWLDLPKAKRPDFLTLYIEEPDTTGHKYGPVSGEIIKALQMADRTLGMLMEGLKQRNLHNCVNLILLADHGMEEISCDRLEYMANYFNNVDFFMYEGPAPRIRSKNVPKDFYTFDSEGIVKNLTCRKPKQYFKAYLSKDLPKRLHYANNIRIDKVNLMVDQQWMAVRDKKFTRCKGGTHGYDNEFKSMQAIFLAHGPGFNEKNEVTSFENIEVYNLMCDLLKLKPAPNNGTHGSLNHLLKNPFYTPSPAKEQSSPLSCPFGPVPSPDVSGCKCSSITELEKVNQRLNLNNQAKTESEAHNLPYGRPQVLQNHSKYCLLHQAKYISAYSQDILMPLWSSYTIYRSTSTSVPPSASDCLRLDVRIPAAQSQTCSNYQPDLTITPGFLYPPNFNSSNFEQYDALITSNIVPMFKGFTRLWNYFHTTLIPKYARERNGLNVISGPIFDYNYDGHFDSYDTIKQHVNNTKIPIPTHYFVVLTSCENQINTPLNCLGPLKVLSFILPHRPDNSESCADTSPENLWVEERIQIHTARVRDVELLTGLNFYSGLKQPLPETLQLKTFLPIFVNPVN

Compound: O=P1(N(CCCl)CCCl)NCCCO1 (stereo not shown) [Cyclophosphamide]
- Antibody titre [1]: 0.444 ± 0.141

Compound: C[C@H]1N[C@@H](CCCCCCCCCCC2=C[C@@H](CCCCCCCCCC[C@H]3CC[C@@H](O)[C@@H](C)N3)[C@@H]3CCCN3C2)CC[C@H]1O [Juliprosopine]
- antibacterial activity [2]: exhibiting antibacterial activity

Compound: OC[C@H]1O[C@@H](Oc2cc(O)c3c(c2)O[C@H](c2ccc(O)cc2)[C@H](O)C3)[C@H](O)[C@@H](O)[C@@H]1O [Symposide]
- antifibrinolytic activity [3]: showed antifibrinolytic activity

Compound: O=C(OCc1cc(O)ccc1O[C@@H]1O[C@H](CO)[C@@H](O)[C@H](O)[C@H]1O)c1ccccc1 [salireposide]
- inhibitory activity against snake venom Phosphodiesterase type I ([4]; Ahmad et al. Phytochemistry, 2003): inhibitory activity

Compound: Lipopolysaccharide [LPS]
- Proinflammatory Cytokine induced Cell Death (%) [5]: 79.0%
- NO Levels (RAW-264.7 Cells): 2862.50 ± 87.50 µM
- TNF ∝ Levels [6]: 3432.00 ± 140.50 pg/mL
- TNF ∝ Levels (pg/ml) [6]: 3432.00 ± 140.50^• pg/ml
- IL-6 Conc. [7]: 11187 ± 214 pg/mL

Compound: benzoylsalireposide
- inhibitory activity against snake venom Phosphodiesterase type I [4]: inhibitory activity

From patent US7943181B2, “Natural immunostimulant compositions, methods for obtaining the same and pharmaceutical formulations thereof” (Himalaya Global Holdings Ltd., priority 2004, dated 2011)
